This note sets out measurements from patent US20060252813A1, “Apparatus for curing a composite laminate” (priority 2002, published 2006).

Broadly, the IC50 is the midpoint of a concentration-inhibition curve.

Where a SMILES comes first, the peptide text is derived from it. [ ]: non-standard residue; d: D form. Phe(3-CN) = N#Cc1cccc(C[CH](N)C(=O)O)c1; Phe(2-CN) = N#Cc1ccccc1C[CH](N)C(=O)O; 1Nal = N[CH](Cc1cccc2ccccc12)C(=O)O

One assay addresses hFKBP12 (Homo sapiens, UniProt P62942). The assay is described as follows: protease-coupled PPIase assay, hFKBP12. The class given is biochemical. The following applies: 20 nM hFKBP12; substrate Suc-Ala-Phe-Pro-Phe-pNA, α-chymotrypsin; 35 mM HEPES pH 7.8, 6° C; read-out: Target T-2 (hFKBP12), IC50 class.
In a further assay the target is hPin1 (Homo sapiens, UniProt Q13526). The assay is described as follows: protease-coupled PPIase assay, hPin1. The class given is biochemical. The following applies: 6 nM hPin1; substrate Ac-Ala-Ala-Ser(PO3H2)-Pro-Arg-pNA, trypsin; 35 mM HEPES pH 7.8, 6° C; read-out: Target T-1 (hPin1), IC50 class.
Chain of hPin1 (Q13526 whole entry): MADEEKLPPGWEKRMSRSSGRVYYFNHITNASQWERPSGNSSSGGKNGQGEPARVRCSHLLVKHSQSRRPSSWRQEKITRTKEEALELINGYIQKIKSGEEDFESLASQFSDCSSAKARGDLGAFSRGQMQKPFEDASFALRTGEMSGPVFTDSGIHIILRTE
A further assay concerns the target hCyp18 (Homo sapiens, UniProt P62937). The assay is described as follows: protease-coupled PPIase assay, hCyp18. The following applies: 10 nM hCyp18; substrate Suc-Ala-Phe-Pro-Phe-pNA, α-chymotrypsin; 35 mM HEPES pH 7.8, 6° C; read-out: Target T-3 (hCyp18), IC50 class. Type of assay: biochemical.
The target of another assay is LpCyp18 (Legionella pneumophila, UniProt Q5ZRZ4). The assay is described as follows: biochemical.
Chain of LpCyp18 (Q5ZRZ4 1-164): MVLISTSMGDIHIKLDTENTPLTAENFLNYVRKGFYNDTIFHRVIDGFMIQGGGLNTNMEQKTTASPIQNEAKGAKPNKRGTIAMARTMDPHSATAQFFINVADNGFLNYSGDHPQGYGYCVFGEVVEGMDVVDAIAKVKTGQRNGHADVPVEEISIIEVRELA
Another assay deals with EcParvulin (Escherichia coli, UniProt P0A9L5). Kind of assay: protease-coupled PPIase assay, EcParvulin. The class given is biochemical. The following applies: 20 nM EcParvulin; substrate Suc-Ala-Phe-Pro-Phe-pNA, α-chymotrypsin; 35 mM HEPES pH 7.8, 6° C; read-out: Target T-5 (EcParv), IC50 class.
Chain of EcParvulin (P0A9L5 whole entry): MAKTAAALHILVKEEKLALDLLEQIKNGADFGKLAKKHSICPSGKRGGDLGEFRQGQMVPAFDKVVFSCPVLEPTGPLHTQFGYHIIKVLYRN

Chain of hCyp18 (P62937 whole entry): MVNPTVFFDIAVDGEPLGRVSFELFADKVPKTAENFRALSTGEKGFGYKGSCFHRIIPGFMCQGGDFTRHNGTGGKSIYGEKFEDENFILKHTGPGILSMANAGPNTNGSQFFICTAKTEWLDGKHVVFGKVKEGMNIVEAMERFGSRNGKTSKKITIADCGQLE
Chain of hFKBP12 (P62942 whole entry): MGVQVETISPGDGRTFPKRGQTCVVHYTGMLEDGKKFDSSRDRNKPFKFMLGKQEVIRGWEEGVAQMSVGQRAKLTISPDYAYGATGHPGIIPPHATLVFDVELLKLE

As for `N#CCCNC(=O)[C@H](Cc1csc2ccccc12)NC(=S)Nc1ccc(SC(F)(F)F)cc1` [Compound 2], the IC50 is more than 100 µM on hFKBP12, 5 to 10 µM on hPin1, more than 100 µM at hCyp18 and more than 100 µM against LpCyp18.
Regarding `CCNC(=S)NC(Cc1ccc2ccccc2c1)C(=O)NCCC#N` (stereo not drawn) [Compound 1], the IC50 was more than 100 µM on hFKBP12, less than 5 µM on hPin1, more than 100 µM at hCyp18 and more than 100 µM at LpCyp18.
Consider `CC(=O)NC(Cc1cccc2ccccc12)C(=O)NC(Cc1cccc(C#N)c1)C(N)=O` (stereo not drawn) [Compound 9] (Ac-[1Nal]-[Phe(3-CN)]-NH2; configuration not given here), for which the IC50 on hFKBP12 was more than 100 µM; at hPin1 it was 5 to 10 µM; at EcParvulin it was 5 to 10 µM; at hCyp18, more than 100 µM; at LpCyp18, more than 100 µM.
In the case of `N#CCCNS(=O)(=O)Cc1ccccc1` [Compound 3], the IC50 at hFKBP12 was more than 100 µM; at hPin1, 5 to 10 µM; on hCyp18, more than 100 µM; at LpCyp18 it was more than 100 µM.
Take `CC(C)CC(NC(=O)C1CCCN1CC#N)C(N)=O` (stereo not drawn) [Compound 6]: the IC50 on hFKBP12 is more than 100 µM; at hPin1, 5 to 10 µM; on hCyp18, more than 100 µM; at LpCyp18 it was more than 100 µM.
Turning to `CN(C)c1ccc(N=Nc2ccc(S(=O)(=O)NCCC#N)cc2)cc1` [Compound 7], the IC50 is more than 100 µM at hFKBP12, 5 to 10 µM at hPin1, more than 100 µM on hCyp18 and more than 100 µM against LpCyp18.
Consider `CCc1ccc(NC(=S)NCCC#N)cc1` [Compound 5], for which the IC50 is more than 100 µM at hFKBP12, less than 5 µM at hPin1, more than 100 µM on hCyp18 and more than 100 µM on LpCyp18.
For the compound `CC(=O)NC(Cc1cccc2ccccc12)C(=O)NC(Cc1ccccc1C#N)C(N)=O` (stereo not drawn) [Compound 8] (Ac-[1Nal]-[Phe(2-CN)]-NH2; configuration not given here), the IC50 on hFKBP12 is more than 100 µM; on hPin1, less than 5 µM; on hCyp18, more than 100 µM; against LpCyp18 it was more than 100 µM.
